Measured values taken from the supplement of paper PMC10307832.

How the values were obtained:
Assay in all cases: relative viability (nuclei count vs DMSO), 5 days (fraction); higher = more cells survive
Alpelisib = compound: Cc1nc(NC(=O)N2CCC[C@H]2C(N)=O)sc1-c1ccnc(C(C)(C)C(F)(F)F)c1 [Alpelisib]
Outline: (§1)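 Vehicle-anchored 1536-well plates of lung cancer cell lines, held overnight at 37 °C, were pinned with five library-drug doses (not always all listed) spaced by √10. No medium change followed over the next 5 days, after which the cells were fixed, permeabilised and Hoechst-stained together and imaged at 4×. Nuclei were counted with MetaXpress, and viability is treated-well nuclei over vehicle-well nuclei, taken as a median across plates. Plates passed with control CV below 25% and at least one doubling.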

OSI-027 = compound: COc1cccc2cc(-c3nc([C@H]4CC[C@H](C(=O)O)CC4)n4ncnc(N)c34)[nH]c12 [OSI-027]
Outline: as §1

Vemurafenib = compound: CCCS(=O)(=O)Nc1ccc(F)c(C(=O)c2c[nH]c3ncc(-c4ccc(Cl)cc4)cc23)c1F [Vemurafenib]
Outline: as §1

| Cell Line | relative viability (Alpelisib; 0.04 µM) | relative viability (Alpelisib; 0.1265 µM) | relative viability (Alpelisib; 0.4 µM) | relative viability (Alpelisib; 1.265 µM) | relative viability (Alpelisib; 2 µM, anchor plate) | relative viability (Alpelisib; 4 µM) | relative viability (OSI-027; 0.01 µM) | relative viability (OSI-027; 0.03162 µM) | relative viability (OSI-027; 0.1 µM) | relative viability (OSI-027; 0.3162 µM) | relative viability (OSI-027; 0.5 µM, anchor plate) | relative viability (OSI-027; 1 µM) | relative viability (Vemurafenib; 0.03162 µM) | relative viability (Vemurafenib; 0.1 µM) | relative viability (Vemurafenib; 0.3162 µM) | relative viability (Vemurafenib; 1 µM) |
| --- | --- | --- | --- | --- | --- | --- | --- | --- | --- | --- | --- | --- | --- | --- | --- | --- |
| 201T | 0.985 | 0.974 | 0.994 | 0.873 | 1.01 | 0.816 | 0.98 | 0.999 | 0.972 | 0.968 | 0.757 | 0.733 | 0.954 | 0.951 | 0.971 | 0.968 |
| A549 | 0.905 | 0.877 | 0.953 | 0.774 | 0.84 | 0.538 | 0.95 | 0.839 | 0.94 | 0.788 |  | 0.34 | 0.939 | 0.942 | 0.945 | 0.963 |
| A-427 | 0.98 | 0.886 | 0.965 | 0.871 | 1.09 | 0.911 | 0.891 | 0.946 | 0.794 | 0.722 | 0.47 | 0.619 | 0.953 | 0.973 | 0.852 | 0.989 |
| ABC-1 | 1.13 | 0.77 | 0.886 | 0.662 | 1.05 | 0.608 | 0.874 | 1.03 | 0.825 | 0.585 | 0.499 | 0.547 | 0.808 | 0.886 | 0.711 | 0.945 |
| BEN | 0.99 | 0.913 | 1.15 | 1.01 | 1.04 | 0.847 | 0.882 | 0.82 | 0.647 | 0.475 | 0.296 | 0.299 | 0.923 | 0.987 | 0.569 | 0.8 |
| CAL-12T | 0.999 | 0.989 | 1.09 | 0.963 | 1.14 | 0.955 | 0.99 | 0.988 | 0.944 | 0.857 | 0.702 | 0.528 | 0.961 | 0.892 | 1.01 | 0.935 |
| COR-L23 | 0.959 | 1.09 | 1.08 | 0.837 | 0.739 | 0.786 | 1.11 | 0.94 | 1.04 | 0.943 | 0.769 | 0.537 | 0.943 | 0.979 | 0.927 | 1.09 |
| COR-L 105 | 0.931 | 1 | 1.21 | 0.876 | 1.03 | 0.853 | 0.907 | 0.945 | 0.814 | 0.835 | 0.775 | 0.762 | 0.772 |  | 0.908 | 1.03 |
| Calu-6 | 0.981 | 0.976 | 1.1 | 0.941 | 0.98 | 0.922 | 1.12 | 0.954 | 1.03 | 0.907 |  | 0.731 | 0.932 | 0.956 | 0.849 | 0.974 |
| ChaGo-K-1 | 0.973 | 0.875 | 1.02 | 0.871 |  | 0.75 | 0.989 | 0.91 | 0.959 | 0.9 | 0.63 | 0.859 | 0.958 | 1.02 | 0.863 | 1.01 |
| EBC-1 | 0.942 | 0.904 | 1.15 | 0.853 | 0.866 | 0.862 | 0.943 | 0.837 | 0.909 | 0.886 |  | 0.361 | 0.943 | 0.929 | 0.986 | 1.03 |
| EKVX | 0.927 | 0.921 | 1.12 | 0.821 | 0.893 | 0.614 | 0.984 | 0.914 | 0.93 | 0.889 | 0.693 | 0.582 | 0.935 |  | 1.03 | 0.988 |
| EMC-BAC-2 | 0.95 | 0.821 | 0.981 | 0.672 | 0.751 | 0.604 | 0.938 | 1.02 | 0.824 | 0.644 | 0.39 | 0.474 | 0.893 | 0.977 | 0.624 | 0.826 |
| EPLC-272H | 0.898 | 0.864 | 0.984 | 0.778 | 0.92 | 0.61 | 0.972 | 0.934 | 0.78 | 0.514 | 0.289 | 0.439 | 0.889 | 0.854 | 1.01 | 0.903 |
| H3255 | 1.03 | 0.936 | 1.09 | 0.755 | 0.698 | 0.743 | 0.98 | 1.11 | 0.893 | 0.874 | 0.629 | 0.638 | 0.918 |  | 1.01 | 0.917 |
| HARA | 0.921 | 1.17 | 0.995 | 0.817 | 0.805 | 0.504 | 1.02 | 1.01 | 0.791 | 0.936 | 0.498 | 0.55 | 0.892 | 0.652 | 0.701 | 0.864 |
| HCC-15 | 1.02 | 0.938 | 1.07 | 0.886 | 0.852 | 0.759 | 0.981 | 0.977 | 0.983 | 0.899 | 0.692 | 0.708 | 0.926 | 1.03 | 0.854 | 0.989 |
| HCC-44 | 0.98 | 0.914 | 1.02 | 0.846 | 0.811 | 0.861 | 0.975 | 0.963 | 0.928 | 0.871 | 0.634 | 0.739 | 0.899 | 0.955 | 0.758 | 1.07 |
| HCC-78 | 0.93 | 0.798 | 0.897 | 0.664 | 0.378 | 0.655 | 0.938 | 0.866 | 0.832 | 0.727 | 0.385 | 0.501 | 0.93 | 0.838 | 1.05 | 0.964 |
| HCC-366 | 0.935 | 1 | 1.09 | 0.947 | 0.443 | 0.627 | 1.05 | 0.962 | 1.08 | 1.05 | 0.911 | 0.803 | 1.01 | 0.969 |  | 1.09 |
| HCC-827 | 1.02 | 0.935 | 1.05 | 0.981 | 0.945 | 1 | 1.08 | 1.02 | 1.04 | 1.04 | 0.792 | 0.956 | 1.05 |  | 0.95 | 1.07 |
| HOP-62 | 1.04 | 1.06 | 1.1 | 0.863 | 0.974 | 0.955 | 1 | 1.07 | 1 | 0.957 | 0.831 | 0.75 | 0.961 | 1.05 | 0.858 | 0.875 |
